These results are taken from patent publication US12269012B2, “Columns and methods of use for analytical standards and compounds” (priority 2018, dated 2025).

Series [1] is described as follows: Bound and recovery of PAH standards on PS-DVB on-column standards after 15 days of storage. Format: physicochemical. The conditions noted are these: standards 0.1-9 ppm; for Average % Bound: PS-DVB pipette tip columns; for Average % Recovered: after 15 days of storage of on-column standards. As to the method: Primary stock solutions of PAHs, namely B(a)A, Ch, B(b)F and B(a)P, were prepared by dissolving 1-2 mg of each compound in 10.0 mL methanol separately. From these stock solutions, secondary working standard stock solutions were mixed together to constitute the working standards containing all the standards mixed together. The secondary standard mixtures were prepared to have final concentrations of 0.1-10 ppm. All primary and secondary working solutions were stored at −20° C.
PS-DVB 160 μL resin bed volume pipette tip columns (50 mg resin, particle size 70-100 μm particle size, 950 m^2/g surface area) from PhyNexus® (San Jose, CA) were activated with 500 μL of 1:1 methanol/water through five times recycling of the activation solution. The loading was achieved through ten times recycling of the 500 μL sample. Washing was carried out once, with 1:1 methanol/water (ten times recycling of 500 μL wash solution). After washing, the sorbent was dried for 1 minute through flushing ambient air in and out of the tip and then air dried and stored for 15 days.
PS-DVB sorbent retains PAHs due to strong π-π interactions between sorbent and PAHs. The PS/DVB on-column standards were prepared by loading 0.1, 0.3, 0.5, 0.7, 0.9, 1, 3, 5, 7, and 9 ppm standard mixtures. These corresponded to 50, 150, 250, 350, 450, 500, 1500, 2500, 3500, and 4500 ng by weight of each of the four PAH standards contained in the secondary standard mixture.

Series [2] is described as follows: SPE binding and recovery of flavonoid standards from freshly prepared Oasis HLB cartridges. Format: physicochemical. The conditions noted are these: 10, 15, and 20 ppm standard solutions. As to the method: In addition, on-column standards were prepared from the fresh standards. Unidirectional flow Oasis® HLB, 30 mg sorbent 1 mL cartridges were used as the solid phase extraction column. The appropriate amounts of standard compounds corresponding to 10-30 ppm were adsorbed to SPE sorbent Oasis® HLB cartridges.
The SPE columns were activated with 1 mL methanol and equilibrated with 1 mL water. The cartridges loaded with standard compound solutions dried and were stored in vacuum sealed packing.
The columns were stored for several days. The columns were washed with 1:1 methanol/water. Elution was performed twice with 500 μL 10% formic acid in methanol. HPLC-UV and ESI-MS were used to quantify the target compounds.

The format of series [3] is physicochemical. The method, then: All three solutions were combined to a final volume of 10.0 mL using pure methanol. From this stock solution, working standards at net final concentration of 10-30 ppm (each) were prepared by appropriate dilution of the stock solution into 1:1 methanol/water, v/v. All working solutions were stored at −20° C. as well as stored at room temperature (stability was monitored after 4 hours, 1 day, 3 days, 7 days, 10 days and 28 days' storage at room temperature) to monitor the extent of degradation.
Degradation Kinetics (0-28 Days) for wet storage at room temperature.
The stability of flavonoids was compared at wet storage (solution form at room temperature and at −20° C.) and dry storage (room temperature bound to sorbent and dry form in an open Eppendorf vial).

Like-named read-outs stand apart in the source and are kept apart here.

Regarding `c1ccc2cc3c(ccc4ccccc43)cc2c1` [Benz(a)anthracene (B(a)A), Benz(a)anthracene], in series [1], the “Average % Bound” value is reported as 95-99% and the “Average % Recovered” value is reported as 100-102%.

With `c1ccc2c(c1)ccc1c3ccccc3ccc21` [Chrysene (Ch), Chrysene], in series [1], the “Average % Bound” value is recorded as 95-99% and the “Average % Recovered” value is recorded as 100-102%.

For the compound `c1ccc2c(c1)cc1ccc3cccc4ccc2c1c34` [Benzo(a)pyrene (B(a)P), Benzo(a)pyrene], in series [1], the “Average % Bound” value was 95-99% and the “Average % Recovered” value was 96-100%.

Regarding `O=c1c(O)c(-c2ccc(O)cc2)oc2cc(O)cc(O)c12` [Kaempferol, kaempferol], the “Bound % (Oasis ® HLB, 30 mg, 1 ml sorbent)” value (“Bound %” below) in series [2] is listed as 100%.

With `O=c1c(O)c(-c2ccc(O)c(O)c2)oc2cc(O)cc(O)c12` [Quercetin, quercetin], the percent degradation is 0% in series [3] (0 h, 10 ppm); 0% in series [3] (0 h, 15 ppm); 0% in series [3] (0 h, 20 ppm); 0% in series [3] (0 h, 25 ppm); 0% in series [3] (0 h, 30 ppm); −0.4024% in series [3] (4 h, 10 ppm). Moreover, the percent degradation was 0.1356% in series [3] (4 h, 15 ppm); −0.4094% in series [3] (4 h, 20 ppm); 0.4552% in series [3] (4 h, 25 ppm); −0.3121% in series [3] (4 h, 30 ppm); 0.4024% in series [3] (1 day, 10 ppm); −0.4070% in series [3] (1 day, 15 ppm). Moreover, the percent degradation in series [3] (1 day, 20 ppm) is listed as 0.1023%; in series [3] (1 day, 25 ppm), 1.442%; in series [3] (1 day, 30 ppm), −0.2496%; in series [3] (3 days, 10 ppm), 3.822%; in series [3] (3 days, 15 ppm), 2.442%; in series [3] (3 days, 20 ppm), 1.842%. Besides, the percent degradation in series [3] (3 days, 25 ppm) amounted to 2.656%; in series [3] (3 days, 30 ppm), 0.9363%; in series [3] (7 days, 10 ppm) it was 6.237%; in series [3] (7 days, 15 ppm), 3.799%; in series [3] (7 days, 20 ppm), 4.811%; in series [3] (7 days, 25 ppm), 4.780%. Also, the percent degradation is recorded as 3.246% in series [3] (7 days, 30 ppm); 5.432% in series [3] (10 days, 10 ppm); 3.664% in series [3] (10 days, 15 ppm); 3.480% in series [3] (10 days, 20 ppm); 3.414% in series [3] (10 days, 25 ppm); 2.871% in series [3] (10 days, 30 ppm). In addition, the percent degradation is given as 12.47% in series [3] (28 days, 10 ppm); 9.633% in series [3] (28 days, 15 ppm); 7.881% in series [3] (28 days, 20 ppm); 6.525% in series [3] (28 days, 25 ppm); 5.056% in series [3] (28 days, 30 ppm). In series [2], the “Bound %” value turned out to be 100%.

`c1ccc2c(c1)-c1cccc3c1c-2cc1ccccc13` [Benzo(b)fluoranthene (B(b)F), Benzo(b)fluoranthene]: in series [1], the “Average % Bound” value is recorded as 95-99% and the “Average % Recovered” value was 90-97%.

For `O=c1c(O)c(-c2cc(O)c(O)c(O)c2)oc2cc(O)cc(O)c12` [Myricetin, myricetin], the percent degradation is given as 0% in series [3] (0 h, 10 ppm); 0% in series [3] (0 h, 15 ppm); 0% in series [3] (0 h, 20 ppm); 0% in series [3] (0 h, 25 ppm); 0% in series [3] (0 h, 30 ppm); −0.4796% in series [3] (4 h, 10 ppm). The percent degradation in series [3] (4 h, 15 ppm) is reported as −0.6270%; in series [3] (4 h, 20 ppm), 1.520%; in series [3] (4 h, 25 ppm), 0.1736%; in series [3] (4 h, 30 ppm), 0.4265%; in series [3] (1 day, 10 ppm), −0.9592%; in series [3] (1 day, 15 ppm) it was 0.3134%. The percent degradation is recorded as 2.690% in series [3] (1 day, 20 ppm); 3.211% in series [3] (1 day, 25 ppm); 0.9239% in series [3] (1 day, 30 ppm); 4.556% in series [3] (3 days, 10 ppm); 5.015% in series [3] (3 days, 15 ppm); 6.901% in series [3] (3 days, 20 ppm). Also, the percent degradation in series [3] (3 days, 25 ppm) was determined as 5.990%; in series [3] (3 days, 30 ppm), 3.767%; in series [3] (7 days, 10 ppm), 11.27%; in series [3] (7 days, 15 ppm), 9.404%; in series [3] (7 days, 20 ppm) it was 12.74%; in series [3] (7 days, 25 ppm), 10.67%. Also, the percent degradation in series [3] (7 days, 30 ppm) worked out at 8.319%; in series [3] (10 days, 10 ppm), 12.47%; in series [3] (10 days, 15 ppm) it was 10.66%; in series [3] (10 days, 20 ppm), 12.63%; in series [3] (10 days, 25 ppm), 9.982%; in series [3] (10 days, 30 ppm), 7.747%. Moreover, the percent degradation was determined as 30.46% in series [3] (28 days, 10 ppm); 31.97% in series [3] (28 days, 15 ppm); 22.92% in series [3] (28 days, 20 ppm); 19.36% in series [3] (28 days, 25 ppm); 17.13% in series [3] (28 days, 30 ppm). Moreover, the “Bound %” value in series [2] worked out at 100%.
